Test results published in ChEMBL document CHEMBL1201862, “PubChem BioAssay data set” (2004).
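Assay format: 96-well plates, 48-hour exposure. GI50 = concentration required for 50% inhibition of growth.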 Activity calls are given as the source filed them. Rule as the data show it: active = GI50 up to about 1.1 µM and inactive = higher.

Tests used:
Test in all cases: inhibition of tumour cell growth, NCI panel, 48 h
[1] = system: NCI-H23
[2] = system: SNB-75
[3] = system: CAKI-1
[4] = system: UO-31
[5] = system: NCI-H522
[6] = system: M14
[7] = system: HCT-116
[8] = system: HCC 2998
[9] = system: EKVX
[10] = system: SF-539
[11] = system: COLO 205
[12] = system: ACHN
[13] = system: OVCAR-8
[14] = system: NCI-H226
[15] = system: LOX IMVI
[16] = system: HOP-92

Measured: GI50

NC1CCCCC1.O=C(O)C1(P(=O)(O)O)CC1
inactive: [1] > 100 µM | [2] 92.3 µM | [3] > 100 µM | [4] > 100 µM | [5] > 100 µM | [6] 25.5 µM | [7] > 100 µM | [8] > 100 µM | [9] > 100 µM | [10] > 100 µM | [11] > 100 µM | [12] > 100 µM | [13] > 100 µM

O=S(=O)(N/N=C/c1cccc(/C=N/NS(=O)(=O)c2ccccc2)c1)c1ccccc1
inactive: [1] 87.1 µM | [2] > 100 µM | [4] 46.7 µM | [14] > 100 µM | [15] 30 µM | [6] > 100 µM | [7] 83.9 µM | [8] > 100 µM | [16] 38.9 µM | [9] 77.6 µM | [10] > 100 µM | [11] 38.3 µM | [12] 68.7 µM | [13] 55.5 µM

Cc1[nH]c2ccccc2c1-c1n[nH]c(=O)c2ccccc12
inactive: [1] 26 µM | [2] 15.3 µM | [3] 13.4 µM | [4] 17.3 µM | [14] 18.7 µM | [6] 21 µM | [7] 13.3 µM | [8] 30.4 µM | [9] 17.9 µM | [10] 24.3 µM | [12] 25.7 µM | [13] 32.5 µM

CCC1CCCCN1CC(C(C)=O)C(c1ccccc1)c1c(O)c2ccccc2oc1=O (stereo not drawn)
inactive: [1] > 100 µM | [2] 6.87 µM | [3] > 100 µM | [4] > 100 µM | [14] 18 µM | [5] > 100 µM | [15] > 100 µM | [6] > 100 µM | [7] > 100 µM | [9] > 100 µM | [10] > 100 µM | [11] 76.6 µM | [12] > 100 µM | [13] > 100 µM

CCOC(=O)/C=C1\CCCC12OCCO2
inactive: [2] 77.3 µM | [3] > 100 µM | [4] > 100 µM | [14] > 100 µM | [5] 2.87 µM | [6] > 100 µM | [7] 54.1 µM | [8] > 100 µM | [10] > 100 µM | [11] > 100 µM | [12] > 100 µM | [13] 89.5 µM

N#C/C(=C1\SC(C(N)=O)=C(N)N1c1ccccc1)c1nc2ccccc2[nH]1
inactive: [1] > 100 µM | [2] 48.2 µM | [3] > 100 µM | [4] 99.1 µM | [14] > 100 µM | [5] > 100 µM | [15] 32.2 µM | [6] > 100 µM | [7] > 100 µM | [16] 39.5 µM | [9] > 100 µM | [10] 75.9 µM | [11] 59 µM | [12] > 100 µM | [13] > 100 µM

S=C1ON=C(c2ccccc2)/C1=C/Nc1ccccc1
inactive: [1] > 100 µM | [2] > 100 µM | [3] > 100 µM | [4] > 100 µM | [5] > 100 µM | [15] > 100 µM | [6] > 100 µM | [8] > 100 µM | [9] > 100 µM | [10] 97.7 µM | [11] > 100 µM | [12] 47.1 µM | [13] > 100 µM

CNC(C)(C)Cc1ccc(Cl)cc1
inactive: [1] > 100 µM | [2] > 100 µM | [3] > 100 µM | [5] > 100 µM | [15] > 100 µM | [6] > 100 µM | [7] > 100 µM | [8] > 100 µM | [9] > 100 µM | [10] > 100 µM | [11] > 100 µM | [12] > 100 µM | [13] > 100 µM

Cc1cc(N(CCC#N)S(=O)(=O)c2ccccc2)ccc1C=O
inactive: [1] > 100 µM | [2] > 100 µM | [3] > 100 µM | [4] > 100 µM | [14] > 100 µM | [5] > 100 µM | [15] > 100 µM | [6] > 100 µM | [7] > 100 µM | [8] > 100 µM | [9] > 100 µM | [10] > 100 µM | [11] > 100 µM | [12] > 100 µM | [13] > 100 µM

CC(C)(C)NCC(COc1ccc([N+](=O)[O-])cc1)OP(c1ccccc1)c1ccccc1 (stereo not drawn)
inactive: [1] 44.9 µM | [2] 33.7 µM | [3] 28.8 µM | [4] 20.6 µM | [14] 29 µM | [5] 19.3 µM | [15] 11 µM | [6] 26.8 µM | [7] 33 µM | [8] 42.4 µM | [9] 53.1 µM | [10] 53.1 µM | [11] 31.4 µM | [12] 38.7 µM | [13] 34.8 µM

NC1CCC2(O)c3ccccc3C2C1 (stereo not drawn)
inactive: [1] > 100 µM | [2] > 100 µM | [4] > 100 µM | [14] > 100 µM | [5] > 100 µM | [15] > 100 µM | [6] > 100 µM | [7] > 100 µM | [9] > 100 µM | [11] > 100 µM | [12] > 100 µM | [13] > 100 µM
